Measurements taken from PMC11878344 (Angewandte Chemie (International Ed. in English), 2025).
Like-named read-outs stand apart in the source and are kept apart here.

Tests used:
[1] = target: T1, mouse MAGL (Mus musculus, UniProt O35678); assay: In vitro MAGL inhibition assay (2-AG hydrolysis followed by mass spectrometry); format: biochemical
T1 sequence (O35678 1-303): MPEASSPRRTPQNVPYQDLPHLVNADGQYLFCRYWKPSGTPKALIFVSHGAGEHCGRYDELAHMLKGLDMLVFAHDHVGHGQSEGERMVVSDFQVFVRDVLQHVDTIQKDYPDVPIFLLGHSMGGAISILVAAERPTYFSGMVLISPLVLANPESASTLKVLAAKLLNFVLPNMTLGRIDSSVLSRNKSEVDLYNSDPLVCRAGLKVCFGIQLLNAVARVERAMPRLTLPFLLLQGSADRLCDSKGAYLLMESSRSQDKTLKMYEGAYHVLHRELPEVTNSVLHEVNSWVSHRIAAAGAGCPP
Experimental: (§1) 4. Experimental Details of Biochemical Assays and Crystal Structure
(§2) In Vitro MAGL Inhibition Assay
(§3) Compounds were profiled for MAGL inhibitory activity by determining the enzymatic activity by following the hydrolysis of the natural substrate 2-arachidonoylglycerol (2-AG), resulting in arachidonic acid, which can be followed by mass spectrometry. The 2-AG assay was carried out in 384 well assay plates (PP, Greiner Cat# 784201) in a total volume of 20 µL. Compound dilutions were made in 100% DMSO (VWR Chemicals 23500.297) in a polypropylene plate in 3-fold dilution steps to give a final concentration range in the assay from 12.5 µM to 0.8 pM. 0.25µL compound dilutions (100% DMSO) were added to 9 µL MAGL in assay buffer (50 mM TRIS (GIBCO, 15567-027), 1 mM EDTA (Fluka, 03690-100 mL), 0.01% (v/v) Tween. After shaking, the plate was incubated for 15 min at RT. To start the reaction, 10 µL 2-arachidonoylglycerol in assay buffer was added. The final concentrations in the assay were 50 pM MAGL and 8 µM 2-arachidonoylglyerol. After shaking and 30 min incubation at RT, the reaction was quenched by the addition of 40µL of ACN containing 4 µM of d8-arachidonic acid. The amount of arachidonic acid was traced by an online SPE system (Agilent Rapidfire) coupled to a triple quadrupole mass spectrometer (Agilent 6460). A C18 SPE cartridge (G9205A) was used in an ACN/water liquid setup. The mass spectrometer was operated in negative electrospray mode following the mass transitions 303.1 → 259.1 for arachidonic acid and 311.1 → 267.0 for d8-arachidonic acid. The activity of the compounds was calculated based on the ratio of intensities [arachidonic acid / d8- […]
(§4) This assay was performed as first described before.[39] […]

[2] = target: T2, human MAGL (Homo sapiens, UniProt Q99685); assay: as above; format: biochemical
T2 sequence (Q99685 1-303): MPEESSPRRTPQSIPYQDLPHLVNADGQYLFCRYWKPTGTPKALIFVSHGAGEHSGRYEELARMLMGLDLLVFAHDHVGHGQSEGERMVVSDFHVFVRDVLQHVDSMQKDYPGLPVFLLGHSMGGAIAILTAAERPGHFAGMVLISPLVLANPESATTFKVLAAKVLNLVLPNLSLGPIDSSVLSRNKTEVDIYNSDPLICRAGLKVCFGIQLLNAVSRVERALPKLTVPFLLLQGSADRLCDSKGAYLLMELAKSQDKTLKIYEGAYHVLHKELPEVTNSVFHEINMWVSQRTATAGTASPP
Experimental: as §1, §2, §3, §4

[3] = target: T3, NanoLuc luciferase MAGL fusion protein in HEK293A cells (Homo sapiens, UniProt Q99685); assay: Cellular MAGL NanoBRET target engagement assay; format: cell-based
T3 construct: expressed in transfected cells
T3 sequence (Q99685 1-303): T2 sequence (Q99685 1-303)
Experimental: We, therefore, confirmed cellular MAGL target engagement in a nanoBRET assay using live HEK293 cells.[39] […] To overcome the low cellular potency of 4, we exploited the modular construction principle to modulate unfavorable physicochemical properties and investigated less polar, privileged head groups[23, 33, 40] (Supporting Information Table S4). […]
This assay was performed as first described before.[39]
Compounds were profiled by a novel cellular MAGL NanoBRET™ Target Engagement assay, which measures the apparent affinity of test compounds by competitive displacement of a Roche-developed Tracer (WO2021058443, Example 21)[21], reversibly bound to a NanoLuc® luciferase MAGL fusion protein in cells.
A HEK293A stable cell line expressing NanoLuc_MAGL was established at Roche and assigned as HEK293A_NanoLuc_MAGL clone #43. A fixed concentration of tracer is added to cells expressing the NanoLuc®_MAGL fusion protein to generate a BRET reporter complex. The introduction of competing compounds results in a dose-dependent decrease in NanoBRET™ energy transfer, which allows quantification of the intracellular affinity of the target protein for the […]
HEK293A_NanoLuc_MAGL clone #43 cells were cultured in DMEM (Gibco 31966) with 10% FBS and 800 ug/ml G418. The NanoBRET assay was performed by seeding 5000 cells/well in Costar low-volume white 384-well plate in assay buffer (1% FBS in HBSS), followed by adding 50 nM final concentration of tracer and serial dilutions of test compounds. After 2 hours of incubation, Nanoluciferase substrates and extracellular inhibitors were added following the manufacturer's protocol (Promega, #N2520), and the NanoBRET signaling were quantified with the Paradigm

[4] = Fluorescence excitation/absorption and emission maxima; format: physicochemical; settings: PBS pH 7.4
Excerpt: Figure S8. Fluorescence excitation and emission spectra of the utilized fluorescent reporters in PBS pH 7.4. Spectra l differences between probes carrying the same fluorophore were […]
Table S6. Fluorescence excitation, emission maxima, and Stokes-shift in PBS pH 7.4 for the used fluorophores, respectively. difference s between probes with the same fluorophore were […]
λmax Excitation [nm] λmax Emission [nm] Stokes-shift [nm]
(1 picture or pasted object on this page, not shown here)

[5] = tested on: MAGL; design: method as in PMID 35089028, PMID 34764251, PMID 34328319, PMID 29498843; settings: known MAGL ligands of Figure 1; cited from earlier work
[6] = target: Cyno MAGL (Macaca fascicularis, UniProt A0A2K5V664); assay: In vitro MAGL inhibition assay; format: biochemical, cynomolgus monkey; settings: Supporting Information Table S4
Sequence of Cyno MAGL (A0A2K5V664 entry or part of it): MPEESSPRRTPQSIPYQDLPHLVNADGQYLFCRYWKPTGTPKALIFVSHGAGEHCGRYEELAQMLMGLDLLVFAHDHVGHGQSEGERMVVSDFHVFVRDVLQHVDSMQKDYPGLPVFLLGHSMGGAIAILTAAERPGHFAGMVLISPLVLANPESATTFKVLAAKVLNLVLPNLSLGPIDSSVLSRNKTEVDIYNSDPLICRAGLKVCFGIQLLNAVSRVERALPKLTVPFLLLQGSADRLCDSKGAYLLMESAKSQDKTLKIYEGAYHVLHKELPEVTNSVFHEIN
Experimental: as §1, §2
Compounds were profiled for MAGL inhibitory activity by determining the enzymatic activity by following the hydrolysis of the natural substrate 2-arachidonoylglycerol (2-AG), resulting in arachidonic acid, which can be followed by mass spectrometry. The 2-AG assay was carried out in 384 well assay plates (PP, Greiner Cat# 784201) in a total volume of 20 µL. Compound dilutions were made in 100% DMSO (VWR Chemicals 23500.297) in a polypropylene plate in 3-fold dilution steps to give a final concentration range in the assay from 12.5 µM to 0.8 pM. […] The activity of the compounds was calculated based on the ratio of intensities [arachidonic acid / d8- […]

[7] = Supporting Information Tables S1-S5, read-out: IC50 mMAGL
[8] = Supporting Information Tables S1-S5, read-out: IC50 hMAGL
[9] = Table 1, transfected HEK293 cells, n=1 to 3, read-out: HEK293 nanoBRET IC50
[10] = Table 1, n=1 to 3, read-out: mMAGL IC50
[11] = Table 1, n=1 to 3, read-out: hMAGL IC50
[12] = Table 2, mean of three independent measurements ± SD, read-out: HEK 293 nanoBRET IC50±SD
[13] = Table 2, mean of three independent measurements ± SD, read-out: mMAGL IC50±SD
[14] = Table 2, mean of three independent measurements ± SD, read-out: hMAGL IC50±SD

SMILES | IC50 [1, 7] | IC50 [2, 8] | IC50 [3, 9] | IC50 [1, 10] | IC50 [2, 11] | further results
O=C1CO[C@H]2CCN(C(=O)N3C[C@@H]4C(COCc5ccccc5OCCNC(=O)OCc5ccccc5)[C@@H]4C3)C[C@H]2N1 (stereo partly drawn) [Compound S6] | 315 nM | 97 nM |  |  |  | 
O=C1CO[C@H]2CCN(C(=O)N3CC4(CCC(OCc5ccccc5OCCNC(=O)OCc5ccccc5)CC4)C3)C[C@H]2N1 [Compound S4] | 38 nM | 15 nM |  |  |  | 
O=C1CO[C@H]2CCN(C(=O)N3CC4(CC(OCc5ccccc5OCCNC(=O)OCc5ccccc5)C4)C3)C[C@H]2N1 [Compound S3] | 38 nM | 11 nM |  |  |  | 
CN1/C(=C\C=C\C2=[N+](CCCCCC(=O)NCCOc3ccccc3CC3CC4(C3)CN(C(=O)N3CC5(COC(=O)N5)C3)C4)c3ccccc3C2(C)C)C(C)(C)c2ccccc21 [Compound S21] | 0.119 nM | 0.122 nM |  |  |  | 
O=C1CO[C@H]2CCN(C(=O)N3CC(COCc4ccccc4OCCNC(=O)OCc4ccccc4)C3)C[C@H]2N1 [Compound 3] | 5 nM | 2 nM | 141 nM | 5.41 nM | 2.14 nM | 
O=C1NC2(CO1)CN(C(=O)N1CC3(CC(Cc4ccccc4OCCNc4ccc([N+](=O)[O-])c5c4NON5)C3)C1)C2 [Compound 8] | 0.138 nM | 0.124 nM | 307 nM | 0.11 nM | 0.09 nM | IC50 [3, 12]: 308 ± 114 nM; IC50 [1, 13]: 0.12 ± 0.04 nM; IC50 [2, 14]: 0.09 ± 0.03 nM; λmax Em (fluorescence emission maximum) [4]: 554 nm; λmax Ex (fluorescence excitation maximum) [4]: 479 nm
O=C(NCCOc1ccccc1COCC1CN(C(=O)OC(C(F)(F)F)C(F)(F)F)C1)OCc1ccccc1 [Compound 7] |  |  | 222 nM | 0.85 nM | 0.65 nM | 
O=C1COc2ccc(C(=O)N3CC(COCc4ccccc4OCCNC(=O)OCc4ccccc4)C3)cc2N1 [Compound S18] | 35 nM | 7.5 nM |  |  |  | 
O=C(NCCCCCOc1ccccc1CC1CC2(C1)CN(C(=O)O[C@H](CO)C(F)(F)F)C2)O[C@H]1CC/C=C/CCC1 [Compound 14] |  |  |  |  |  | IC50 [3, 12]: 1250 ± 507 nM; IC50 [1, 13]: 0.42 ± 0.17 nM; IC50 [2, 14]: 0.31 ± 0.13 nM
O=C1CO[C@H]2CCN(C(=O)N3CC(COCc4ccccc4)C3)C[C@H]2N1 [Compound 1] |  |  | > 10000 nM | 526 nM | 379 nM | 
O=C1CO[C@H]2CCN(C(=O)N3CC(COCc4ccccc4OCCCCCNC(=O)OCc4ccccc4)C3)C[C@H]2N1 [Compound S8] | 144 nM | 46 nM |  |  |  | 
O=C1CO[C@H]2CCN(C(=O)N3CC(COCc4ccccc4OCCCNC(=O)OCc4ccccc4)C3)C[C@H]2N1 [Compound S7] | 7 nM | 3 nM |  |  |  | 
O=C1CO[C@H]2CCN(C(=O)N3CC(OCc4ccccc4OCCNC(=O)OCc4ccccc4)C3)C[C@H]2N1 [Compound S1] |  | 70 nM |  |  |  | 
Cc1ccc(C(c2ccccc2)C2CCN(C(=O)N3CCC4OCC(=O)NC4C3)CC2)cc1 (stereo not drawn) [Compound 85] |  |  |  |  |  | IC50 [5]: 0.1 nM
O=C1CO[C@H]2CCN(C(=O)N3CC4(CC(OCc5cccc(OCCNC(=O)OCc6ccccc6)c5)C4)C3)C[C@H]2N1 [Compound S11] | 76 nM | 28 nM |  |  |  | 
O=C(NCCOc1ccccc1COCC1CN(C(=O)N2CC3(COC(=O)N3)C2)C1)OCc1ccccc1 [Compound 5] |  |  | 61 nM | 0.59 nM | 0.29 nM | IC50 [6]: 0.094 nM
C#CCCCC(=O)NCCOc1ccccc1CC1CC2(C1)CN(C(=O)OC(C(F)(F)F)C(F)(F)F)C2 [Compound 13] |  |  |  |  |  | IC50 [3, 12]: 99 ± 23 nM; IC50 [1, 13]: 0.13 ± 0.05 nM; IC50 [2, 14]: 0.14 ± 0.04 nM
O=C1CO[C@H]2CCN(C(=O)N3CCC4(CC3)CC(OCc3ccccc3OCCNC(=O)OCc3ccccc3)C4)C[C@H]2N1 [Compound S5] | 21 nM | 7 nM |  |  |  | 
O=C1CO[C@H]2CCN(C(=O)N3CC(OCc4cccc(OCCNC(=O)OCc5ccccc5)c4)C3)C[C@H]2N1 [Compound S9] | 38 nM | 44 nM |  |  |  | 
O=C(NCCOc1ccccc1COCC1CN(C(=O)CC[C@@H]2COC(=O)N2)C1)OCc1ccccc1 [Compound S19] | 66 nM | 9.2 nM |  |  |  | 
O=C1NC2(CO1)CN(C(=O)N1CC(COCc3ccccc3OCCNc3ccc([N+](=O)[O-])c4nonc34)C1)C2 [Compound 6] |  |  | 318 nM | 1.03 nM | 0.72 nM | 
O=C1CO[C@H]2CCN(C(=O)N3CC(COCc4cccc(OCCNC(=O)OCc5ccccc5)c4)C3)C[C@H]2N1 [Compound 2] | 97 nM | 31 nM | 406 nM | 97.4 nM | 30.8 nM | 
